Results: paper PMC6017654, “Ionic Liquid-Promoted Synthesis of Novel Chromone-Pyrimidine Coupled Derivatives, Antimicrobial Analysis, Enzyme Assay, Docking Study and Toxicity Study” (Molecules : A Journal of Synthetic Chemistry and Natural …, 2018)
≈ marks a conversion by molar mass, not a printed value.

Columns and labels:
[1] = tested on: Staphylococcus aureus (NCIM-2901); test: In vitro antibacterial activity (MIC100, two fold serial dilution, NCCLS); type: cell-based; details: Staphylococcus aureus, NCIM2901, 24 h, read-out: MIC100, S. aureus NCIM-2901, average of three readings
Experimental: (§1) All the synthesized compounds 4(a–f) and 6(a–f) were screened for their in vitro antibacterial activity against Staphylococcus aureus (NCIM-2901), Escherichia coli 1411 (standard laboratory strains) and Escherichia coli SM1411 (an acrAB deficient derivative of 1411). Minimum inhibitory concentration (MIC100) values were determined using methods recommended by National Committee for Clinical Laboratory Standards (NCCLS). Dimethyl sulfoxide (DMSO) was used as solvent control.
(§2) All the synthesized compounds 4(a–f) and 6(a–f) were screened for their in vitro antibacterial activity against Staphylococcus aureus (NCIM-2901) and Escherichia coli 1411 (standard laboratory strains) and Escherichia coli SM1411 (an acrAB deficient derivative of 1411). Minimum inhibitory concentration (MIC100) values were determined using the method recommended by National Committee for Clinical Laboratory Standards (NCCLS). In vitro antibacterial activities of the synthesized compounds 4(a–f) and 6(a–f) were tested in Nutrient Broth (NB) for Bacteria by the two fold serial dilution method. Seeded broth (broth containing microbial spores) was prepared in NB from 24 h old bacterial cultures on nutrient agar (Hi-media) at 37 ± 1 °C. The bacterial suspension was adjusted with sterile saline to a concentration of […]. The synthesized compounds and standard drug D-cycloserine were prepared by two fold serial dilutions to obtain the required concentrations. The tubes were incubated in BOD incubators at 37 ± 1 °C for bacteria. The MICs were recorded by visual observations after 24 h (for bacteria) of incubation.

[2] = tested on: Escherichia coli SM1411 (an acrAB deficient derivative of 1411); test: as above; type: cell-based; details: 24 h, read-out: MIC100
Experimental: as §1, §2

Escherichia coli 1411 = test: as above; type: cell-based; details: Escherichia coli, 1411, 24 h, read-out: MIC100
Experimental: as §1, §2

A. flavus = test: In vitro antifungal activity (MIC100, CLSI/NCCLS); type: cell-based; details: Aspergillus flavus; A. fla.; average of three readings; read-out: MIC 100
Experimental: (§3) The newly synthesized derivatives 4(a–f) and 6(a–f) were screened for their in vitro antifungal activity against different yeast and filamentous fungal pathogens. Minimum inhibitory concentration (MIC100) values for in vitro antifungal activity were determined by the methods recommended by National Committee for Clinical Laboratory Standards (NCCLS). Miconazole was used as standard drug. Dimethyl sulfoxide (DMSO) was used as solvent control.
(§4) In vitro antifungal activity was determined as per CLSI (formerly, NCCLS) guidelines. […] The medium yeast nitrogen base was dissolved in phosphate buffer pH 7 and it was autoclaved at 110 °C for 10 min. With each set a growth control without the antifungal agent and solvent control DMSO were included. The fungal strains were freshly sub cultured on to Sabouraud dextrose agar (SDA) and incubated at 25 °C for 72 h. The fungal cells were suspended in sterile distilled water and diluted to get 10^5 cells/mL. Further, ten microlitres of the standardized suspension was inoculated onto the control plates and the media incorporated with the antifungal agents. The inoculated plates were incubated at 25 °C for 48 h. The readings were taken at the end of 48 h and 72 h. The MIC was the lowest concentration of drug preventing growth of macroscopically visible colonies on drug containing plates when there was visible growth on the drug free control plates.

Fusarium oxysporum = test: In vitro antifungal activity (MIC100, CLSI/NCCLS); type: cell-based; details: F. oxy., average of three readings, read-out: MIC 100
Experimental: as §3, §4

Aspergillus fumigates = test: In vitro antifungal activity (MIC100, CLSI/NCCLS); type: cell-based; details: A. fum., average of three readings, read-out: MIC 100
Experimental: as §3, §4

Aspergillus niger = test: In vitro antifungal activity (MIC100, CLSI/NCCLS); type: cell-based; details: A. nig., average of three readings, read-out: MIC 100
Experimental: as §3, §4

Candida albicans = test: In vitro antifungal activity (MIC100, CLSI/NCCLS); type: cell-based; details: C. alb., average of three readings, read-out: MIC 100
Experimental: as §3, §4

Candida glabrata = test: In vitro antifungal activity (MIC100, CLSI/NCCLS); type: cell-based; details: Nakaseomyces glabratus; C. glab.; average of three readings; read-out: MIC 100
Experimental: as §3, §4

Cryptococcus neoformans = test: In vitro antifungal activity (MIC100, CLSI/NCCLS); type: cell-based; details: C. neo., average of three readings, read-out: MIC 100
Experimental: as §3, §4

DdlB from E.coli = DdlB from E.coli (Escherichia coli, UniProt P07862); test: D-Alanine-D-alanine ligase (DdlB) enzyme inhibition, malachite green method; type: biochemical; details: 37 °C, 30 min incubation, 5% DMSO
Experimental: The key enzyme involved in the peptidoglycan biosynthesis is D-alanine-D-alanine ligase (Ddl), making it an important target for drug discovery. Inhibition of DdlB as an essential enzyme in either Gram-positive or Gram-negative organisms leads to the loss of cell shape and integrity followed by bacterial death. The synthesized derivatives 4(a–f) and 6(a–f) were tested for their inhibitory activity on DdlB from E.coli. The results are presented as IC50 values.
The D-Ala-adding activity of DdlB ligase was monitored by the detection of orthophosphate generated during the reaction based on the colorimetric malachite green method described by Walsh et al.. […] All the compounds were soluble in the assay mixture containing 5% DMSO. After 30 min of incubation, 100 µL Biomol reagent was added. After 5 min, absorbance was read at 650 nm. Residual activity was calculated with respect to a similar assay without inhibitor. To exclude possible non-specific (promiscuous) inhibitors, representative compounds 4(a–f) and 6(a–f) were also tested in the presence of Tween (0.003%), Triton X-114 (0.005%), and SDS (420 µM), as described by McGovern et al.. No significant differences were found when compared to measurements without detergents.

SMILES	MIC [1] [µg/mL]	MIC [2] [µg/mL]	MIC (Escherichia coli 1411) [µg/mL]	MIC (A. flavus) [µg/mL]	MIC (Fusarium oxysporum) [µg/mL]	MIC (Aspergillus fumigates) [µg/mL]	MIC (Aspergillus niger) [µg/mL]	MIC (Candida albicans) [µg/mL]	MIC (Candida glabrata) [µg/mL]	MIC (Cryptococcus neoformans) [µg/mL]	IC50 (DdlB from E.coli) [µM]	melting point [°C]
CCOC(=O)C1=C(C)NC(=O)NC1c1coc2ccccc2c1=O (stereo not drawn) [Compound 4a, Ethyl 6-methyl-2-oxo-4-(4-oxo-4H-chromen-3-yl)-1,2,3,4-tetrahydropyrimidine-5-carboxylate]	64 (≈ 195 µM)	40 (≈ 122 µM)	46 (≈ 140 µM)	66 (≈ 201 µM)	82 (≈ 250 µM)	65 (≈ 198 µM)	57 (≈ 174 µM)	> 100	> 100	60 (≈ 183 µM)	158	270 to 272
CCOC(=O)C1=C(C)NC(=S)NC1c1coc2ccccc2c1=O (stereo not drawn) [Compound 4b, Ethyl 6-methyl-4-(4-oxo-4H-chromen-3-yl)-2-thioxo-1,2,3,4-tetrahydropyrimidine-5-carboxylate]	68 (≈ 197 µM)	50 (≈ 145 µM)	50 (≈ 145 µM)	66 (≈ 192 µM)	58 (≈ 168 µM)	60 (≈ 174 µM)	52 (≈ 151 µM)	64 (≈ 186 µM)	66 (≈ 192 µM)	55 (≈ 160 µM)	296	210 to 212
CCOC(=O)C1=C(C)NC(=O)NC1c1coc2ccc(F)cc2c1=O (stereo not drawn) [Compound 4c, Ethyl 4-(6-fluoro-4-oxo-4H-chromen-3-yl)-6-methyl-2-oxo-1,2,3,4-tetrahydropyrimidine-5-carboxylate]	30 (≈ 86.6 µM)	34 (≈ 98.2 µM)	38 (≈ 110 µM)	58 (≈ 167 µM)	58 (≈ 167 µM)	62 (≈ 179 µM)	44 (≈ 127 µM)	52 (≈ 150 µM)	58 (≈ 167 µM)	46 (≈ 133 µM)	155	200 to 202
CCOC(=O)C1=C(C)NC(=O)NC1c1coc2ccc(OC)cc2c1=O (stereo not drawn) [Compound 4d, Ethyl 4-(6-methoxy-4-oxo-4H-chromen-3-yl)-6-methyl-2-oxo-1,2,3,4-tetrahydropyrimidine-5-carboxylate]	> 200	54 (≈ 151 µM)	55 (≈ 153 µM)	20 (≈ 55.8 µM)	36 (≈ 100 µM)	36 (≈ 100 µM)	20 (≈ 55.8 µM)	34 (≈ 94.9 µM)	38 (≈ 106 µM)	24 (≈ 67 µM)	330	230 to 232
CCOC(=O)C1=C(C)NC(=S)NC1c1coc2ccc(OC)cc2c1=O (stereo not drawn) [Compound 4e, Ethyl 4-(6-methoxy-4-oxo-4H-chromen-3-yl)-6-methyl-2-thioxo-1,2,3,4-tetrahydropyrimidine-5-carboxylate]	> 200	> 60	58 (≈ 155 µM)	18 (≈ 48.1 µM)	30 (≈ 80.1 µM)	34 (≈ 90.8 µM)	18 (≈ 48.1 µM)	30 (≈ 80.1 µM)	32 (≈ 85.5 µM)	20 (≈ 53.4 µM)	335	222 to 224
